{"source": "ChEMBL document CHEMBL1201862", "about": "“PubChem BioAssay data set” (2004)", "key": {"[1]": {"target": "Glucose-6-phosphate 1-dehydrogenase (Homo sapiens, UniProt P11413)", "sequence (P11413 whole entry)": "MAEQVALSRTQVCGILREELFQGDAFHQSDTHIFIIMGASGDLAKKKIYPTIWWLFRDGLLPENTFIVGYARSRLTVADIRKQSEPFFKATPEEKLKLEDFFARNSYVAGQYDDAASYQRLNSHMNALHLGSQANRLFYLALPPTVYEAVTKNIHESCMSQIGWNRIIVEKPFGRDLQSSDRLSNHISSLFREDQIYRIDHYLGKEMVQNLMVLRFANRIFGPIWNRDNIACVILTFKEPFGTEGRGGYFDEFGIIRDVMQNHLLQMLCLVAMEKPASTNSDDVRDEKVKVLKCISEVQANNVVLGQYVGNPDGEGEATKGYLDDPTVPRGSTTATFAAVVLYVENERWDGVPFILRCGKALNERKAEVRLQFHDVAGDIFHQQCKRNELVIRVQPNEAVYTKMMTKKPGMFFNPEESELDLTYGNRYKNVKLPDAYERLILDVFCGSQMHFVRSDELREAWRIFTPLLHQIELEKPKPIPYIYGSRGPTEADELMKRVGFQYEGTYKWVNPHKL", "assay": "human G6PD enzyme inhibitors, dose response, selectivity assay for P. falciparum G6PD inhibitor project, biochemical, fluorescence (AID 504792)", "assay_type": "functional"}, "HEK293": {"system": "HEK293", "assay": "inhibitors of LMP1-driven NF-kB reporter, dose response, cell-based, HEK293, luciferase, cherry-pick (AID 588343)", "assay_type": "functional", "conditions": "Homo sapiens"}, "[2]": {"target": "Dual specificity tyrosine-phosphorylation-regulated kinase 1A (Rattus norvegicus, UniProt Q63470)", "assay_type": "biochemical, Homo sapiens"}, "[3]": {"target": "T1, E3 ubiquitin-protein ligase XIAP (Homo sapiens, UniProt P98170)", "T1 sequence (P98170 whole entry)": "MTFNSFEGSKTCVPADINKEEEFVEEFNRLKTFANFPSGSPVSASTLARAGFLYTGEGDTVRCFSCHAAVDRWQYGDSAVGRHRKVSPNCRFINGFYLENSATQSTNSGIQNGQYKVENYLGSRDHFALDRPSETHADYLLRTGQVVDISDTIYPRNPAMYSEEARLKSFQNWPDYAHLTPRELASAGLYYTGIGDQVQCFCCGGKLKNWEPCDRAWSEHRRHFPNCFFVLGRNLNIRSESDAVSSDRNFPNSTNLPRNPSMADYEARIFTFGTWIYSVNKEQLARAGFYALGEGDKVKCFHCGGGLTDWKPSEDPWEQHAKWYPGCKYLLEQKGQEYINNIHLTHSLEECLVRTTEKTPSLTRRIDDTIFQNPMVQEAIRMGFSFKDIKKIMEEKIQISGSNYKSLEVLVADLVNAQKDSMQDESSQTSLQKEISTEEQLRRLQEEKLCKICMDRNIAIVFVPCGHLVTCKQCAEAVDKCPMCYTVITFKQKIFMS", "assay": "Counter Screen using XIAP-Bir3 for Chemical Antagonists of Bir1/2 domains of IAP-family anti-apoptotic proteins. [Related pubchem assays (depositor defined):AID1018, AID1449, AID1514, AID1638, AID1749, AID1750, AID488957, AID488963]"}, "[4]": {"target": "T1, E3 ubiquitin-protein ligase XIAP", "assay": "XIAP antagonists, biochemical, IAP family, fluorescence polarization (AID 1018)", "assay_type": "functional"}, "[5]": {"target": "T2, Mannose-6-phosphate isomerase (Homo sapiens, UniProt P34949)", "T2 sequence (P34949 whole entry)": "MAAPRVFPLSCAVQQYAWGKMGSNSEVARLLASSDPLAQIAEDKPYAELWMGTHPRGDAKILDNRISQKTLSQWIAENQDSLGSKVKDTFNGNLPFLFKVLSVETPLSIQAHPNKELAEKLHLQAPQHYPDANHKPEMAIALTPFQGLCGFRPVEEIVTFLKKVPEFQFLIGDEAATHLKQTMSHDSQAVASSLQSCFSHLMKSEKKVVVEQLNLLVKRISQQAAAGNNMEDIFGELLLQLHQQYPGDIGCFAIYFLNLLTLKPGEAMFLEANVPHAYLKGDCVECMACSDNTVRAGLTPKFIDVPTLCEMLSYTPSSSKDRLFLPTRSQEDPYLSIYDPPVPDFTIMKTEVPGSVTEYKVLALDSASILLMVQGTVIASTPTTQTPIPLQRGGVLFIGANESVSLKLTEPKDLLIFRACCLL", "assay": "inhibitors of human PMI, primary screen, biochemical, fluorescence intensity, coupled assay (AID 1209)"}, "[6]": {"target": "T2, Mannose-6-phosphate isomerase", "assay": "human PMI inhibitors, high substrate, primary screen, biochemical, fluorescence intensity, high mannose 6-phosphate (AID 1220)"}, "[7]": {"system": "Streptococcus sp. 'group A'", "assay": "growth inhibition of control SK(-) GAS strain, dose response, counter-screen for streptokinase expression inhibitor project, luminescence, kanamycin, BacTiterGlo, confirmation (AID 1900)", "assay_type": "functional, organism-based"}, "Streptokinase A": {"target": "T3, Streptokinase A (Streptococcus pyogenes serotype M1, UniProt P10520)", "T3 sequence (P10520 whole entry)": "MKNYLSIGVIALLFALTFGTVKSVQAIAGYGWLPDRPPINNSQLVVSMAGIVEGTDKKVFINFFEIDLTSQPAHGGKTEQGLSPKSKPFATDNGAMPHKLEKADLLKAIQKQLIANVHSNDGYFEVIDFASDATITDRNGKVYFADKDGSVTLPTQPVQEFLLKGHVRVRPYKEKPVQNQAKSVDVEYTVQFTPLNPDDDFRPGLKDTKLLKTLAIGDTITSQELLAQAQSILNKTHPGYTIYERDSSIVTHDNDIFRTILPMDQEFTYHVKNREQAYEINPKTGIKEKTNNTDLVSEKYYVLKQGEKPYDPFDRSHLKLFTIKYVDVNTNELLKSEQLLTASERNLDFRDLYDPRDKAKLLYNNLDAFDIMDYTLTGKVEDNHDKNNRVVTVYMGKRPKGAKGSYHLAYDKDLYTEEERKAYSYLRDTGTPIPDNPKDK", "assay": "S. pyogenes streptokinase expression inhibitors, potency, dose response, plasminogen activation absorbance, OD405 (AID 1914);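 further: secreted streptokinase activity via plasminogen activation per viability signal from cell pellet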", "assay_type": "functional, Streptococcus pyogenes M1 GAS"}, "[8]": {"target": "Luciferin 4-monooxygenase (Photinus pyralis, UniProt P08659)", "sequence (P08659 whole entry)": "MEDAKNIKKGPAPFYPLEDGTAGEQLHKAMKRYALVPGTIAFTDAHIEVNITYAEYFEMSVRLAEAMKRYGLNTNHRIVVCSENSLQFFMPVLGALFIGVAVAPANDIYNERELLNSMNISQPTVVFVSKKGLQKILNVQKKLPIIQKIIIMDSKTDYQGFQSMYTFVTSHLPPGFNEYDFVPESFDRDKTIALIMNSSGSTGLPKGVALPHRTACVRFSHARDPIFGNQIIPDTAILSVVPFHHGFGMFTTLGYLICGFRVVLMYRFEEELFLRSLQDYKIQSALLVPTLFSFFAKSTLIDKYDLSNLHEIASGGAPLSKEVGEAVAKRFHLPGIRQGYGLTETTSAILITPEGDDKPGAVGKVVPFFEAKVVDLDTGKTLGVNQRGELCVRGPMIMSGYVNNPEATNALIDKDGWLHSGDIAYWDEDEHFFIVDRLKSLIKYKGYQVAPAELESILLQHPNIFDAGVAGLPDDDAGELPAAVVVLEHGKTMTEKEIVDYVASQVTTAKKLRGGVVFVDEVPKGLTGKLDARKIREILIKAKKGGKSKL", "assay": "firefly luciferase enzyme inhibitors, dose response, biochemical, luminescence (AID 1891)"}, "[9]": {"assay": "Luminescence Cell-Based Dose Confirmation HTS to Identify Inhibitors of Platelet Dense Granule Release. [Related pubchem assays: 1663 (Primary HTS), 1678 (Summary of Project)]", "assay_type": "functional"}, "[10]": {"assay": "inhibitors of intracellular T. cruzi replication, confirmation, NIH3T3 host cells, beta-gal luminescence (AID 2044);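 further: luminescent beta-galactosidase reporter signal from transgenic T. cruzi replicating inside host cells; inhibitors lower the luminescence signal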", "assay_type": "functional, cell-based"}, "[11]": {"assay": "cytotoxicity toward NIH3T3 fibroblasts, dose response, counter-screen, cell-based, ATP luminescence, mouse fibroblasts (AID 2010);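 further: cells exposed to compound for about 90 hours before reading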", "assay_type": "functional"}, "Streptococcus": {"system": "Streptococcus", "assay": "Group A Streptococcus viability loss, dose response, counter-screen for streptokinase expression inhibitor project, luminescence, BacTiterGlo (AID 1915);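 further: potency for reduction of bacterial viability or growth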", "assay_type": "functional, organism-based"}, "[12]": {"target": "T4, Heat shock factor protein 1 (Mus musculus, UniProt P38532)", "T4 sequence (P38532 whole entry)": "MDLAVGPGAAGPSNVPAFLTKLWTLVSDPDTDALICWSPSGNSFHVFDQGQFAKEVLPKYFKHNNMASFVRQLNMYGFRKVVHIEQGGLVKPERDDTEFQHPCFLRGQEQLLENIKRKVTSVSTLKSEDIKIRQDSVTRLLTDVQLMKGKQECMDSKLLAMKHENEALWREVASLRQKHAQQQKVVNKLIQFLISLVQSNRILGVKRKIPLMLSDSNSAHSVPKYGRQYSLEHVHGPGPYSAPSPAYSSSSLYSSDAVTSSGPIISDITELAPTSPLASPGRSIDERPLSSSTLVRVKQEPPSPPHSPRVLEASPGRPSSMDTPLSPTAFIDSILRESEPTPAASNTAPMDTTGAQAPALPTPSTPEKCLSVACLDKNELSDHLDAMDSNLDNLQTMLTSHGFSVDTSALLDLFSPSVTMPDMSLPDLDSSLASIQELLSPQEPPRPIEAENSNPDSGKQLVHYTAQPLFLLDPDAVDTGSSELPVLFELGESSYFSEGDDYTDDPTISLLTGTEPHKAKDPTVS", "assay": "inhibition of MG132-induced HSE-luciferase signal, confirmation, cell-based, NIH3T3, luminescence, dose retest (AID 2382);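 further: NIH3T3 fibroblasts with HSF1-driven luciferase reporter stressed by proteasome inhibitor MG132; luminescence from HSF1-driven luciferase expression after 8 hours of MG132 stress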", "assay_type": "functional"}}, "note": "Calls of active or inactive are those of the source.", "data": [{"smiles": "Cc1ccc(N2CC(C(=O)OCC(=O)c3ccc([N+](=O)[O-])cc3)CC2=O)cc1", "note": "(stereo unspecified)", "values": [{"measurement": "IC50", "setting": "[1]", "value": "> 80 µM (inactive)"}]}, {"smiles": "CC(=O)Nc1cccc(-c2cnc(N)c(C(=O)c3cccnc3)n2)c1", "values": [{"measurement": "AC50", "setting": "HEK293", "value": "21.4 µM (active)"}, {"measurement": "AC50", "setting": "[2]", "value": "0.193 µM (active)"}]}, {"smiles": "CC[n+]1c(C)sc2c(C)cc(C)cc21", "values": [{"measurement": "IC50", "setting": "[3]", "value": "> 100 µM (inactive)"}, {"measurement": "IC50", "setting": "[4]", "value": "> 100 µM (not active)"}, {"measurement": "IC50", "setting": "[5]", "value": "10.8 µM (active)"}, {"measurement": "IC50", "setting": "[6]", "value": "> 50 µM (not active)"}]}, {"smiles": "Oc1c(N=NC(S)=Nc2ccccc2F)c2ccccc2n1Cc1cccc(Cl)c1", "values": [{"measurement": "EC50", "setting": "[7]", "value": "2.69 µM (active)"}, {"measurement": "EC50", "setting": "Streptokinase A", "value": "> 150 µM (not active)"}, {"measurement": "EC50", "setting": "[8]", "value": "> 112 µM (not active)"}, {"measurement": "EC50", "setting": "[9]", "value": "> 112 µM (not active)"}, {"measurement": "EC50", "setting": "[10]", "value": "0.676 µM (active)"}, {"measurement": "EC50", "setting": "[11]", "value": "1.71 µM (active)"}, {"measurement": "EC50", "setting": "Streptococcus", "value": "> 150 µM (not active)"}, {"measurement": "AC50", "setting": "HEK293", "value": "4.15 µM (active)"}]}, {"smiles": "Fc1cccc(COc2ccccc2CNc2ccccc2)c1", "values": [{"measurement": "IC50", "setting": "[3]", "value": "> 100 µM (inactive)"}, {"measurement": "IC50", "setting": "[4]", "value": "> 100 µM (not active)"}]}, {"smiles": "Cn1c(-c2sccc2OCc2cccc(C(F)(F)F)c2)n[nH]c1=S", "values": [{"measurement": "EC50", "setting": "[12]", "value": "> 195 µM (not active)"}, {"measurement": "IC50", "setting": "[1]", "value": "> 80 µM (inactive)"}]}, {"smiles": "O=C(NCc1nnc(S)n1-c1ccc(F)cc1)c1ccco1", "values": [{"measurement": "IC50", "setting": "[3]", "value": "> 100 µM (inactive)"}, {"measurement": "IC50", "setting": "[4]", "value": "> 100 µM (not active)"}]}]}
